From patent publication US10385097B2, “Ether compounds for treatment of medical disorders” (Achillion Pharmaceuticals, Inc., priority 2015, dated 2019)

Biological target: T1, Human Factor D (Homo sapiens, UniProt P00746)
T1 construct: purified from human serum; purchased Complement Technology, Inc; host or cells: human serum (natural protein, not recombinant)
Assay: Human Factor D Assay
Format: biochemical
Conditions: Table 3; Human Factor D 80 nM, substrate Z-L-Lys-SBzl; read-out: (IC50 (Stars))
Method in brief: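 Serum-purified factor D (80 nM final) preincubated 5 min at room temperature with compound in 50 mM Tris, 1 M NaCl, pH 7.5. Reaction started with 100 μM Z-L-Lys-SBzl plus 100 μM DTNB; A405 read every 30 s for 30 min; IC50 by nonlinear regression of rates.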

T1 sequence (P00746 26-253): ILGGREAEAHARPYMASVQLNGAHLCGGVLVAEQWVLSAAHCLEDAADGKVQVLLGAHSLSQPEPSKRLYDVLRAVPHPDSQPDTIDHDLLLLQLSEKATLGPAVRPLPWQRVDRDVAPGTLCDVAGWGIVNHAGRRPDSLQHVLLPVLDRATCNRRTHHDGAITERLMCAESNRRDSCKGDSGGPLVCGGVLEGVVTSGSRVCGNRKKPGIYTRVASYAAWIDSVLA

| SMILES | IC50 [nM] |
| --- | --- |
| CCOP(=O)(COc1ccc2c(c1)c(C(C)=O)cn2CC(=O)N1C[C@H](F)C[C@H]1C(=O)NCCCc1ccccc1)OCC [Compound 148, diethyl (((3-acetyl-1-(2-((2S,4R)-4-fluoro-2-((3-phenylpropyl)carbamoyl)pyrrolidin-1-yl)-2-oxoethyl)-1H-indol-5-yl)oxy)methyl)phosphonate] | < 1000 |
| CC(=O)c1cn(CC(=O)N2C[C@H](F)C[C@H]2C(=O)NCCCc2ccccc2)c2ccc(OCP(=O)(O)O)cc12 [Compound 149, (((3-Acetyl-1-(2-((2S,4R)-4-fluoro-2-((3-phenylpropyl)carbamoyl)pyrrolidin-1-yl)-2-oxoethyl)-1H-indol-5-yl)oxy)methyl)phosphonic acid] | > 10000 |
| CCOP(=O)(COc1ccc2c(c1)c(C(C)=O)cn2CC(=O)N1C[C@H](F)C[C@H]1C(=O)NCCCCc1ccccc1)OCC [Compound 150, Diethyl (((3-acetyl-1-(2-((2S,4R)-4-fluoro-2-((4-phenylbutyl)carbamoyl)pyrrolidin-1-yl)-2-oxoethyl)-1H-indol-5-yl)oxy)methyl)phosphonate] | < 1000 |
| CC(=O)c1cn(CC(=O)N2C[C@H](F)C[C@H]2C(=O)NCCCCc2ccccc2)c2ccc(OCP(=O)(O)O)cc12 [Compound 151, (((3-Acetyl-1-(2-((2S,4R)-4-fluoro-2-((4-phenylbutyl)carbamoyl)pyrrolidin-1-yl)-2-oxoethyl)-1H-indol-5-yl)oxy)methyl)phosphonic acid] | > 10000 |
| CCOP(=O)(COc1ccc2c(c1)c(C(C)=O)cn2CC(=O)N1C[C@H](F)C[C@H]1CCNS(=O)(=O)c1ccccc1)OCC [Compound 158, Diethyl (((3-acetyl-1-(2-((2R,4R)-4-fluoro-2-(2-(phenylsulfonamido)ethyl)pyrrolidin-1-yl)-2-oxoethyl)-1H-indol-5-yl)oxy)methyl)phosphonate] | 1000 to 10000 |
| CC(=O)c1cn(CC(=O)N2C[C@H](F)C[C@H]2CCNS(=O)(=O)c2ccccc2)c2ccc(OCP(=O)(O)O)cc12 [Compound 159, (((3-Acetyl-1-(2-((2R,4R)-4-fluoro-2-(2-(phenylsulfonamido)ethyl)pyrrolidin-1-yl)-2-oxoethyl)-1H-indol-5-yl)oxy)methyl)phosphonic acid] | > 10000 |
| CCOP(=O)(COc1ccc2c(c1)c(C(C)=O)cn2CC(=O)N1CC[C@H]1C(=O)Nc1cccc(C)n1)OCC [Compound 163, Diethyl (S)-(((3-acetyl-1-(2-(2-((6-methylpyridin-2-yl)carbamoyl)azetidin-1-yl)-2-oxoethyl)-1H-indol-5-yl)oxy)methyl)phosphonate] | > 10000 |
| COc1cc(Br)nc(NC(=O)[C@@H]2C[C@@H](F)CN2C(=O)Cn2nc(C(C)=O)c3cc(Oc4ncc(C)cn4)ccc32)c1 [Compound 174, (2S,4R)-1-(2-(3-Acetyl-5-((5-methylpyrimidin-2-yl)oxy)-1H-indazol-1-yl)acetyl)-N-(6-bromo-4-methoxypyridin-2-yl)-4-fluoropyrrolidine-2-carboxamide] | < 1000 |
| CC(=O)c1nn(CC(=O)N2C[C@H](F)C[C@H]2C(=O)Nc2cccc(Br)n2)c2ccc(Oc3cnc(C)cn3)cc12 [Compound 175, (2S,4R)-1-(2-(3-Acetyl-5-((5-methylpyrazin-2-yl)oxy)-1H-indazol-1-yl)acetyl)-N-(6-bromopyridin-2-yl)-4-fluoropyrrolidine-2-carboxamide] | < 1000 |

The next lines start with the values.

| IC50 [nM] | SMILES |
| --- | --- |
| < 1000 | CC(=O)c1cn(CC(=O)N2C[C@H](F)C[C@H]2C(=O)Nc2cncc(Br)n2)c2ccc(Oc3ncc(F)cn3)cc12 [Compound 164, (2S,4R)-1-(2-(3-Acetyl-5-((5-fluoropyrimidin-2-yl)oxy)-1H-indol-1-yl)acetyl)-N-(6-bromopyrazin-2-yl)-4-fluoropyrrolidine-2-carboxamide] |
| < 1000 | CC(=O)c1cn(CC(=O)N2[C@@H]3C[C@@H]3C[C@H]2C(=O)Nc2cncc(Br)n2)c2ccc(Oc3ncc(F)cn3)cc12 [Compound 165, (1R,3S,5R)-2-(2-(3-Acetyl-5-((5-fluoropyrimidin-2-yl)oxy)-1H-indol-1-yl)acetyl)-N-(6-bromopyrazin-2-yl)-2-azabicyclo[3.1.0]hexane-3-carboxamide] |
| < 1000 | CC(=O)c1cn(CC(=O)N2C[C@H](F)C[C@H]2C(=O)Nc2cncc(Br)n2)c2ccc(Oc3ncc(C)cn3)cc12 [Compound 166, (2S,4R)-1-(2-(3-Acetyl-5-((5-methylpyrimidin-2-yl)oxy)-1H-indol-1-yl)acetyl)-N-(6-bromopyrazin-2-yl)-4-fluoropyrrolidine-2-carboxamide] |
| < 1000 | CC(=O)c1nn(CC(=O)N2C[C@H](F)C[C@H]2C(=O)Nc2cncc(Br)n2)c2ccc(Oc3ncc(C)cn3)cc12 [Compound 167, (2S,4R)-1-(2-(3-Acetyl-5-((5-methylpyrimidin-2-yl)oxy)-1H-indazol-1-yl)acetyl)-N-(6-bromopyrazin-2-yl)-4-fluoropyrrolidine-2-carboxamide] |
| < 1000 | CC(=O)c1nn(CC(=O)N2C[C@H](F)C[C@H]2C(=O)Nc2cncc(Br)n2)c2ccc(Oc3nccc(C)n3)cc12 [Compound 168, (2S,4R)-1-(2-(3-Acetyl-5-((4-methylpyrimidin-2-yl)oxy)-1H-indazol-1-yl)acetyl)-N-(6-bromopyrazin-2-yl)-4-fluoropyrrolidine-2-carboxamide] |
| < 1000 | CC(=O)c1nn(CC(=O)N2C[C@H](F)C[C@H]2C(=O)Nc2cccc(Br)n2)c2ccc(Oc3ncc(C)cn3)cc12 [Compound 169, (2S,4R)-1-(2-(3-Acetyl-5-((5-methylpyrimidin-2-yl)oxy)-1H-indazol-1-yl)acetyl)-N-(6-bromopyridin-2-yl)-4-fluoropyrrolidine-2-carboxamide] |
| < 1000 | CC(=O)c1nn(CC(=O)N2[C@@H]3C[C@@H]3C[C@H]2C(=O)Nc2cncc(Br)n2)c2ccc(Oc3ncc(C)cn3)cc12 [Compound 170, (1R,3S,5R)-2-(2-(3-Acetyl-5-((5-methylpyrimidin-2-yl)oxy)-1H-indazol-1-yl)acetyl)-N-(6-bromopyrazin-2-yl)-2-azabicyclo[3.1.0]hexane-3-carboxamide] |
| < 1000 | CC(=O)c1nn(CC(=O)N2[C@@H]3C[C@@H]3C[C@H]2C(=O)Nc2cccc(Br)n2)c2ccc(Oc3ncc(C)cn3)cc12 [Compound 171, (1R,3S,5R)-2-(2-(3-Acetyl-5-((5-methylpyrimidin-2-yl)oxy)-1H-indazol-1-yl)acetyl)-N-(6-bromopyridin-2-yl)-2-azabicyclo[3.1.0]hexane-3-carboxamide] |
| < 1000 | CC(=O)c1nn(CC(=O)N2C[C@H](F)C[C@H]2C(=O)Nc2nc(Br)ccc2C)c2ccc(Oc3ncc(C)cn3)cc12 [Compound 172, (2S,4R)-1-(2-(3-Acetyl-5-((5-methylpyrimidin-2-yl)oxy)-1H-indazol-1-yl)acetyl)-N-(6-bromo-3-methylpyridin-2-yl)-4-fluoropyrrolidine-2-carboxamide] |
| < 1000 | CC(=O)c1nn(CC(=O)N2[C@@H]3C[C@@H]3C[C@H]2C(=O)Nc2nc(Br)ccc2C)c2ccc(Oc3ncc(C)cn3)cc12 [Compound 173, (1R,3S,5R)-2-(2-(3-Acetyl-5-((5-methylpyrimidin-2-yl)oxy)-1H-indazol-1-yl)acetyl)-N-(6-bromo-3-methylpyridin-2-yl)-2-azabicyclo[3.1.0]hexane-3-carboxamide] |
